Results as given in PubChem BioAssay AID1919002 (Molecular Pharmacology Branch, DTP, NCI, 2023).

System: 743489-274-T-PDC complex spheroid growth
Assay: Anticancer human tumor 743489-274-T-PDC patient-derived renal cell carcinoma cell line growth inhibition [AhR]
Conditions: for IC50: curve of first compound; for viability, T/C: stronger effect = lower value
Summary of the method: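 Spheroids combined tumor cells with HUVEC endothelial cells and human MSCs as stroma. AhR antagonists were paired with standard or investigational drugs, each dosed in half-log steps down from near clinical Cmax, or from 10 microM where Cmax was unknown.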

[1] = second compound 0.1 µM, first compound 0.0316 µM
[2] = second compound 0.1 µM, first compound 0.1 µM
[3] = second compound 0.1 µM, first compound 0.316 µM
[4] = second compound 0.1 µM, first compound 1 µM
[5] = second compound 0.1 µM, first compound 3.16 µM
[6] = second compound 0.1 µM, first compound 10 µM
[7] = second compound 0.316 µM, first compound 0.0316 µM
[8] = second compound 0.316 µM, first compound 0.1 µM
[9] = second compound 0.316 µM, first compound 0.316 µM
[10] = second compound 0.316 µM, first compound 1 µM
[11] = second compound 0.316 µM, first compound 3.16 µM
[12] = second compound 0.316 µM, first compound 10 µM
[13] = second compound 1 µM, first compound 0.0316 µM
[14] = second compound 1 µM, first compound 0.1 µM
[15] = second compound 1 µM, first compound 0.316 µM
[16] = second compound 1 µM, first compound 1 µM
[17] = second compound 1 µM, first compound 3.16 µM
[18] = second compound 1 µM, first compound 10 µM
[19] = second compound 3.16 µM, first compound 0.0316 µM
[20] = second compound 3.16 µM, first compound 0.1 µM
[21] = second compound 3.16 µM, first compound 0.316 µM
[22] = second compound 3.16 µM, first compound 1 µM
[23] = second compound 3.16 µM, first compound 3.16 µM
[24] = second compound 3.16 µM, first compound 10 µM
[25] = second compound 10 µM, first compound 0.0316 µM
[26] = second compound 10 µM, first compound 0.1 µM
[27] = second compound 10 µM, first compound 0.316 µM
[28] = second compound 10 µM, first compound 1 µM
[29] = second compound 10 µM, first compound 3.16 µM
[30] = second compound 10 µM, first compound 10 µM
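Also: spheroids exposed to agents for 7 days before readout.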
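For viability, T/C in this document: 100% = DMSO vehicle control wells.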

Row | Structure (SMILES) | IC50 (second compound 0.1 µM) | IC50 (second compound 0.316 µM) | IC50 (second compound 1 µM) | IC50 (second compound 3.16 µM) | IC50 (second compound 10 µM) | viability, T/C [1] | viability, T/C [2] | viability, T/C [3] | viability, T/C [4] | viability, T/C [5] | viability, T/C [6] | viability, T/C [7] | viability, T/C [8] | viability, T/C [9] | viability, T/C [10] | viability, T/C [11] | viability, T/C [12] | viability, T/C [13] | viability, T/C [14] | viability, T/C [15] | further results
1 | Nc1ccn(C2OC(CO)C(O)C2(F)F)c(=O)n1 (stereo not given) + Cc1cncc(-c2nc(NCCc3c[nH]c4ccccc34)c3ncn(C(C)C)c3n2)c1 | > 10 µM | > 10 µM | > 10 µM | > 10 µM | > 10 µM | 83.1% | 76.7% | 72.1% | 65.2% | 65.7% | 67.9% | 87.1% | 73.2% | 71.9% | 62.3% | 72.3% | 63.4% | 85.6% | 90.8% | 74.7% | viability, T/C [16]: 64.8%; viability, T/C [17]: 79.2%; viability, T/C [18]: 68.9%; viability, T/C [19]: 104%; viability, T/C [20]: 93.8%; viability, T/C [21]: 77.3%; viability, T/C [22]: 62.3%; viability, T/C [23]: 74.3%; viability, T/C [24]: 67.1%; viability, T/C [25]: 138%; viability, T/C [26]: 100%; viability, T/C [27]: 74.2%; viability, T/C [28]: 84.2%; viability, T/C [29]: 78.5%; viability, T/C [30]: 96.8%
2 | O=C(C=Cc1cccc(S(=O)(=O)Nc2ccccc2)c1)NO + Cc1cncc(-c2nc(NCCc3c[nH]c4ccccc34)c3ncn(C(C)C)c3n2)c1 | > 10 µM | > 10 µM | > 10 µM | > 10 µM | > 10 µM | 88.3% | 87.7% | 85.9% | 77.5% | 69.1% | 51.4% | 91.6% | 95% | 82.4% | 72.6% | 66.6% | 52.4% | 98.1% | 94.3% | 88.4% | viability, T/C [16]: 70.6%; viability, T/C [17]: 67.5%; viability, T/C [18]: 52.7%; viability, T/C [19]: 102%; viability, T/C [20]: 104%; viability, T/C [21]: 94%; viability, T/C [22]: 82%; viability, T/C [23]: 73.1%; viability, T/C [24]: 54.6%; viability, T/C [25]: 114%; viability, T/C [26]: 118%; viability, T/C [27]: 120%; viability, T/C [28]: 102%; viability, T/C [29]: 78%; viability, T/C [30]: 68.1%
3 | O=C(c1cc(Cc2n[nH]c(=O)c3ccccc23)ccc1F)N1CCN(C(=O)C2CC2)CC1 + Cc1cncc(-c2nc(NCCc3c[nH]c4ccccc34)c3ncn(C(C)C)c3n2)c1 | > 10 µM | > 10 µM | > 10 µM | > 10 µM | > 10 µM | 91.6% | 96.4% | 99% | 88.3% | 86.1% | 85.6% | 87.1% | 84.4% | 94.2% | 86.2% | 82.1% | 88.4% | 98.8% | 99.9% | 94.5% | viability, T/C [16]: 93.2%; viability, T/C [17]: 89.9%; viability, T/C [18]: 85.4%; viability, T/C [19]: 93.3%; viability, T/C [20]: 102%; viability, T/C [21]: 100%; viability, T/C [22]: 90%; viability, T/C [23]: 85.7%; viability, T/C [24]: 95.1%; viability, T/C [25]: 104%; viability, T/C [26]: 102%; viability, T/C [27]: 111%; viability, T/C [28]: 102%; viability, T/C [29]: 105%; viability, T/C [30]: 103%
